# Data from patent publication US5135943A, “1H-imidazole derivative compounds and pharmaceutical compositions containing the same” (priority 1984, dated 1992).
# Like-named read-outs stand apart in the source and are kept apart here.
# Legend:
# 16 microorganisms = assay: Geometric mean of all MIC measurements, comparative in vitro testing; assay type: cell-based; settings: for MIC: read-out: Geometric means of MIC
# Procedure: Minimum Inhibitory Concentrations (MICS) of Sertaconazole were also measured in comparison to four of the compounds described in the Martin Patent, including a compound, referred to herein as Martin Compound 1, which has the same structure as Sertaconazole, expect that the sulfur in the benzothiophene ring is replaced by an oxygen.
# The results of comparative in vitro testing of Sertaconazole and these four Martin compounds are shown in the following Table II against 16 microorganisms. The reading time is the time interval from the time of inoculation to the time of measurement.
# [1] = Safe dosage based on the toxicity findings; settings: in vivo
# Procedure: (§1) In a study of prolonged subacute toxicity of Miconazole in rats, among other effects, significant hepatomegalias in females with a dosage of under 30 mg/kg p.o. and in males with a dosage of under 60 mg/kg p.o. were observed.
# Based on these finds a safe dosage for Miconazole is about 10 mg/kg, while a safe dosage for Sertaconzole is about 150 mg/kg, i.e about 15 times higher.
# [2] = Acute toxicity (LD50) in mouse, three administration routes; settings: in vivo, males
# From the text: A number of compounds with antimycotic and/or fungicidal properties, which are useful in pharmaceutical compositions, are currently known. These include the commercially successful Miconazole having the formula II [drawing 2] Miconazole has a structure chemically similar to the 1H-imidazole derivative compounds of the invention. Miconazole is effective against a number of yeasts, dermatophytes and fungi. This effectiveness can be measured by culturing these microorganisms in vitro and applying a preparation containing the antimycotic compound, Miconazole. The results of this type of in vitro experiment is expressed in terms of the Minimum Inhibitory Concentration (MIC), i.e. the minimum concentration which inhibits the growth of the microorganism. For example, the MIC for Miconazole against a particular Candida albicans strain is found to be 10.7 micrograms/milliliter. The effectiveness of Miconazole as an antimycotic compound is measured in vivo by applying a suspension containing the drug to the skin of a number of animals and measuring the proportion of animals on which growth of the microorganism is inhibited as a function of time. Typically, after 25 days, about 1/4 of the animals were cured, when treated with a cream containing 2 % by weight Miconazole. Of course, any pharmaceutical preparation for treating a disease in a human must satisfy certain toxicity requirements. […] Toxicity tests have been performed on the IH-imidazole derivative compounds of the invention and on Miconazole and other known compounds having antimycotic properties. In toxicity tests the LD50 (the dose at which 50 % mortality occurs) is measured.
# Toxicity of Sertaconazole, Microazole and Martin's compounds 1, 2 and 3, as shown below, has been tested by standard methods. Both acute toxicity, subacute toxicity and chronic toxicity were studied
# Oral, intraperitoneal and subcutaneous acute toxicity of sertaconazole and miconazole have been investigated. LD50 in mouse and rat, male and female, were measured.
# [3] = Prolonged subacute toxicity in rats; assay type: in vivo, rat; settings: rat, in vivo, po
# Procedure: as §1
# C. albicans 14 = assay: MIC, comparative in vitro testing against Martin compounds; assay type: cell-based; settings: Casitone medium
# Summary of the method: (§2)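 Organisms were inoculated and growth inhibition was measured in vitro; the lowest inhibitory concentration was recorded as the MIC, with reading time counted from inoculation to measurement.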
# C. pseudotropicalis 21 = assay: as above; assay type: cell-based; settings: Sabouraud medium
# Summary of the method: as §2
# C. albicans 15 = assay: as above; assay type: cell-based; settings: Casitone medium
# Summary of the method: as §2
# C. albicans ATCC E-10231 = assay: as above; assay type: cell-based; settings: Casitone medium
# Summary of the method: as §2
# C. krusei 24 = assay: as above; assay type: cell-based
# Summary of the method: as §2
# C. stellatoidea 36232 = assay: as above; assay type: cell-based
# Summary of the method: as §2
# C. albicans 32 = assay: as above; assay type: cell-based; settings: YNB medium
# Summary of the method: as §2
# Malasezzia furfur = assay: MIC by two-fold dilution, Malasezzia furfur; assay type: cell-based; settings: 20 strains
# Procedure: Minimum Inhibitory Concentrations (MICS) of Sertaconazole and Miconazole against 107 yeasts, 47 dermatophytes and 4 fungi were determined by a two-fold dilution method.
# Trichophyton rubrum = assay: Randomized double blind clinical trials, Trichophyton rubrum infection; assay type: in vivo, human; settings: 2 % cream (nitrate salts), 28 days treatment
# Procedure: (§3) Human clinical trials were performed with Sertaconazole nitrate and Miconazole nitrate acid addition salts. Randomized double blind trials were carried out with 502 patients suffering from cutaneous mycosis as confirmed by microscopic examination and microbiological culture. 247 patients were treated with 2 % Sertaconazole cream and the remaining 255 patients were treated with 2 % Miconazole cream. All patients received scheduled treatment for 28 days and were followed up for an additional 28 days for possible relapses.
# cutaneous mycosis = assay: Randomized double blind clinical trials, cutaneous mycosis; settings: 2 % cream (nitrate salts)
# Procedure: as §3
smiles,measurement,setting,value
Clc1ccc(C(Cn2ccnc2)OCc2csc3c(Cl)cccc23)c(Cl)c1 (stereo not shown) [Sertaconazole],MIC,"16 microorganisms; 48 h, SZ vs M2, reading time 48 h",0.366 µg/mL
same,MIC,"16 microorganisms; 48 h, SZ vs M3, reading time 48 h",0.336 µg/mL
same,MIC,"16 microorganisms; 48 h, SZ vs M4, reading time 48 h",0.336 µg/mL
same,MIC,"16 microorganisms; 60 h, SZ vs M1, reading time 60 h",0.876 µg/mL
same,Increase of Sertaconazole activity,16 microorganisms; relative to Martin Compound 1,24%
same,Increase of Sertaconazole activity,16 microorganisms; relative to Martin Compound 2,54%
same,Increase of Sertaconazole activity,16 microorganisms; relative to Martin Compound 3,16%
same,Increase of Sertaconazole activity,16 microorganisms; relative to Martin Compound 4,54%
same,safe dosage higher than that of Miconazole,[1],about 15 times
same,NOAEL,[1]; rat,~150 mg/kg
same,LD50,"[2]; ip, intraperitoneal",> 8000 mg/kg
same,LD50,[2]; oral,> 8000 mg/kg
same,LD50,"[2]; sc, subcutaneous",> 8000 mg/kg
same,NOAEL,[3],≥ 300 mg/kg
same,MIC,"C. albicans 14; Candida albicans, 14, 48 h, reading time 48 h, SZ vs M2",0.25 µg/mL
same,MIC,"C. albicans 14; Candida albicans, 14, 48 h, reading time 48 h, SZ vs M3",0.5 µg/mL
same,MIC,"C. albicans 14; Candida albicans, 14, 48 h, reading time 48 h, SZ vs M4",0.5 µg/mL
same,MIC,"C. albicans 14; Candida albicans, 14, 60 h, reading time 60 h, SZ vs M1",1 µg/mL
same,MIC,"C. pseudotropicalis 21; Kluyveromyces marxianus, 21, reading time 48 h, SZ vs M2, read-out: MIC",0.03 µg/mL
same,MIC,"C. pseudotropicalis 21; Kluyveromyces marxianus, 21, reading time 60 h, SZ vs M1, read-out: MIC",0.03 µg/mL
same,MIC,"C. pseudotropicalis 21; reading time 48 h, SZ vs M3",0.03 µg/mL
same,MIC,"C. pseudotropicalis 21; reading time 48 h, SZ vs M4",0.03 µg/mL
same,MIC,"C. albicans 15; Candida albicans, 15, 48 h, reading time 48 h, SZ vs M2",0.06 µg/mL
same,MIC,"C. albicans 15; Candida albicans, 15, 48 h, reading time 48 h, SZ vs M3",0.03 µg/mL
same,MIC,"C. albicans 15; Candida albicans, 15, 48 h, reading time 48 h, SZ vs M4",0.03 µg/mL
same,MIC,"C. albicans 15; Candida albicans, 15, 60 h, reading time 60 h, SZ vs M1",0.5 µg/mL
same,MIC,"C. albicans ATCC E-10231; Candida albicans, ATCCE10231, reading time 48 h, SZ vs M2, read-out: MIC",0.5 µg/mL
same,MIC,"C. albicans ATCC E-10231; Candida albicans, ATCCE10231, reading time 60 h, SZ vs M1, read-out: MIC",1 µg/mL
same,MIC,"C. albicans ATCC E-10231; reading time 48 h, SZ vs M3",0.5 µg/mL
same,MIC,"C. albicans ATCC E-10231; reading time 48 h, SZ vs M4",0.5 µg/mL
same,MIC,"C. krusei 24; Casitone medium, reading time 48 h, SZ vs M4",0.125 µg/mL
same,MIC,"C. krusei 24; Pichia kudriavzevii, 24, 48 h",0.125 µg/mL
same,MIC,"C. krusei 24; Pichia kudriavzevii, 24, 48 h, Casitone medium, reading time 48 h, SZ vs M2, read-out: MIC",0.25 µg/mL
same,MIC,"C. krusei 24; Pichia kudriavzevii, 24, 48 h, YNB medium, reading time 48 h, SZ vs M2, read-out: MIC",0.25 µg/mL
same,MIC,"C. krusei 24; Pichia kudriavzevii, 24, 48 h, YNB medium, reading time 48 h, SZ vs M3, read-out: MIC",0.25 µg/mL
same,MIC,"C. krusei 24; Pichia kudriavzevii, 24, 48 h, YNB medium, reading time 48 h, SZ vs M4, read-out: MIC",0.25 µg/mL
same,MIC,"C. krusei 24; Pichia kudriavzevii, 24, 60 h, Casitone medium, reading time 60 h, SZ vs M1, read-out: MIC",1 µg/mL
same,MIC,"C. krusei 24; Pichia kudriavzevii, 24, 60 h, YNB medium, reading time 60 h, SZ vs M1, read-out: MIC",0.25 µg/mL
same,MIC,"C. stellatoidea 36232; Candida albicans, 36232, 48 h, Casitone medium, reading time 48 h, SZ vs M2",0.06 µg/mL
same,MIC,"C. stellatoidea 36232; Candida albicans, 36232, 48 h, Casitone medium, reading time 48 h, SZ vs M3",0.06 µg/mL
same,MIC,"C. stellatoidea 36232; Candida albicans, 36232, 48 h, Casitone medium, reading time 48 h, SZ vs M4",0.06 µg/mL
same,MIC,"C. stellatoidea 36232; Candida albicans, 36232, 48 h, Sabouraud medium, reading time 48 h, SZ vs M2",0.25 µg/mL
same,MIC,"C. stellatoidea 36232; Candida albicans, 36232, 48 h, Sabouraud medium, reading time 48 h, SZ vs M3",0.5 µg/mL
same,MIC,"C. stellatoidea 36232; Candida albicans, 36232, 48 h, Sabouraud medium, reading time 48 h, SZ vs M4",0.5 µg/mL
same,MIC,"C. stellatoidea 36232; Candida albicans, 36232, 48 h, YNB medium, reading time 48 h, SZ vs M2",1 µg/mL
same,MIC,"C. stellatoidea 36232; Candida albicans, 36232, 48 h, YNB medium, reading time 48 h, SZ vs M3",0.5 µg/mL
same,MIC,"C. stellatoidea 36232; Candida albicans, 36232, 48 h, YNB medium, reading time 48 h, SZ vs M4",0.5 µg/mL
same,MIC,"C. stellatoidea 36232; Candida albicans, 36232, 60 h, Casitone medium, reading time 60 h, SZ vs M1",0.25 µg/mL
same,MIC,"C. stellatoidea 36232; Candida albicans, 36232, 60 h, Sabouraud medium, reading time 60 h, SZ vs M1",1 µg/mL
same,MIC,"C. stellatoidea 36232; Candida albicans, 36232, 60 h, YNB medium, reading time 60 h, SZ vs M1",4 µg/mL
same,MIC,"C. albicans 32; Candida albicans, 32, reading time 48 h, SZ vs M2, read-out: MIC",4 µg/mL
same,MIC,"C. albicans 32; Candida albicans, 32, reading time 60 h, SZ vs M1, read-out: MIC",8 µg/mL
same,MIC,"C. albicans 32; reading time 48 h, SZ vs M3",4 µg/mL
same,MIC,"C. albicans 32; reading time 48 h, SZ vs M4",4 µg/mL
same,Minimum Inhibitory Concentration,Malasezzia furfur,25/8
same,effectiveness against Trichophyton rubrum,Trichophyton rubrum,100%
same,side effects (contact dermatitis),cutaneous mycosis,no such side effects
same,more effective than Miconazole,cutaneous mycosis; 28 days treatment,20.8%
